Test results from patent US12486267B2, “Imidazo[1,2-A]pyridine and [1,2,4]triazolo[1,5-A]pyridine derivatives as TLR9 inhibitors for the treatment of fibrosis” (BRISTOL-MYERS SQUIBB COMPANY, priority 2020, dated 2025).

The compounds below were run against T1, human TLR9 (Homo sapiens, UniProt Q9NR96) (assay: TLR9 inhibition reporter assay (HEK-Blue cells, SEAP reporter)). Settings: HEK-Blue cells overexpressing human TLR9; stimulated with ODN2006 5 nM; 22 hour incubation; SEAP readout.
T1 sequence (Q9NR96 26-1032): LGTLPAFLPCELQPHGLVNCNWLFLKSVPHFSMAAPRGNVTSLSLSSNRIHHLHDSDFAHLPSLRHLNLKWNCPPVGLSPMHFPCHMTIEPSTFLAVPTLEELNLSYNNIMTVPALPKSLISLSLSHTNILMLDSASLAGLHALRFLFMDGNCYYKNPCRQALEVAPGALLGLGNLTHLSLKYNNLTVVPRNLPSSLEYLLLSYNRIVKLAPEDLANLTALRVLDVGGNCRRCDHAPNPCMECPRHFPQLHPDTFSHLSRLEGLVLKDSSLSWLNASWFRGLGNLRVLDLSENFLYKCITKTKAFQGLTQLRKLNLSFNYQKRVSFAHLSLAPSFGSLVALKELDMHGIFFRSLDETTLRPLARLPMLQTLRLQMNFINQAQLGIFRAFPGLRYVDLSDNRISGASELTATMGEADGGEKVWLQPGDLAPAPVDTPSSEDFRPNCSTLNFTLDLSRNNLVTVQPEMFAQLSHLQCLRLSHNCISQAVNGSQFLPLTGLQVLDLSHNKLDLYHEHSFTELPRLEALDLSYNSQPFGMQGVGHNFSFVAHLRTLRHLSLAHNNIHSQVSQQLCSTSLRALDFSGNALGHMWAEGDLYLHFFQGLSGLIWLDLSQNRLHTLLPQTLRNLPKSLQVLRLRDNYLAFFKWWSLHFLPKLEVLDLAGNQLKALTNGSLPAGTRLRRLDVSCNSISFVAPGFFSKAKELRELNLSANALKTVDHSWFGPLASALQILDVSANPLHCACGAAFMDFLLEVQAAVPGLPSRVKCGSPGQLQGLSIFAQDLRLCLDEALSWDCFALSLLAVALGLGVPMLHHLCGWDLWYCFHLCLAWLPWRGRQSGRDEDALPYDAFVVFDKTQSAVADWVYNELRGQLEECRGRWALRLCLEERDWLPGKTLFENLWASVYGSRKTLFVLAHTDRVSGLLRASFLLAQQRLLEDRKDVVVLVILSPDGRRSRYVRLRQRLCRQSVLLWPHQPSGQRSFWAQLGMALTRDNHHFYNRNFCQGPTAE
Format: cell-based
Description: TLR7/8/9 Inhibition Reporter Assays
HEK-Blue™-cells (Invivogen) overexpressing human TLR7, TLR8 or TLR9 receptors were used for screening inhibitors of these receptors using an inducible SEAP (secreted embryonic alkaline phosphatase) reporter gene under the control of the […] minimal promoter fused to five NF-κB and AP-1-binding sites. Briefly, cells are seeded into Greiner 384 well plates (15000 cells per well for TLR7, 20,000 for TLR8 and 25,000 for TLR9) and then treated with test compounds in DMSO to yield a final dose response concentration range of 0.05 nM-50 μM. After a 30 minute compound pre-treatment at room temperature, the cells are then stimulated with a TLR7 ligand (gardiquimod at a final concentration of 7.5 μM), TLR8 ligand (R848 at a final concentration of 15.9 μM) or TLR9 ligand (ODN2006 at a final concentration of 5 nM) to activate NF-κB and AP-1 which induce the production of SEAP. After a 22 hour incubation at 37° C., 5% CO2, SEAP levels are determined with the addition of HEK-Blue™ Detection reagent (Invivogen), a cell culture medium that allows for detection of SEAP, according to manufacturer's specifications. The percent inhibition is determined as the % reduction in the HEK-Blue signal present in wells treated with agonist plus DMSO alone compared to wells treated with a known inhibitor.

SMILES | IC50 [nM]
COc1ccc(-c2cn3cc(C4CC5CCC(C4)N5C4CCN(CC(C)C)CC4)cc(C)c3n2)cc1OC (single isomer, unassigned) [Example 28, 2-(3,4-dimethoxyphenyl)-6-(8-(1-isobutylpiperidin-4-yl)-8-azabicyclo[3.2.1]octan-3-yl)-8-methylimidazo[1,2-a]pyridine] | 7.9
COc1ccc(-c2cn3cc(C4CC5CCC(C4)N5C4CCN(CC(C)C)CC4)cc(C)c3n2)cc1OC (single isomer, unassigned) [Example 29, 2-(3,4-dimethoxyphenyl)-6-(8-(1-isobutylpiperidin-4-yl)-8-azabicyclo[3.2.1]octan-3-yl)-8-methylimidazo[1,2-a]pyridine] | 10
Cc1cc(C2CCN(C3CC4CCC(C3)N4C3CCC3)CC2)cn2cc(-c3ccc(S(C)(=O)=O)cc3)nc12 (single isomer, unassigned) [Example 83, 6-(1-(8-cyclobutyl-8-azabicyclo[3.2.1]octan-3-yl)piperidin-4-yl)-8-methyl-2-(4-(methylsulfonyl)phenyl)imidazo[1,2-a]pyridine] | 12
Cc1cc(C2CCN(C3CC4CCC(C3)N4C3CCC3)CC2)cn2cc(-c3ccc(S(C)(=O)=O)cc3)nc12 (single isomer, unassigned) [Example 84, 6-(1-(8-cyclobutyl-8-azabicyclo[3.2.1]octan-3-yl)piperidin-4-yl)-8-methyl-2-(4-(methylsulfonyl)phenyl)imidazo[1,2-a]pyridine] | 21
Cc1cc(C2CCN(C3CC4CCC(C3)N4CC3CC3)CC2)cn2cc(-c3ccc(S(C)(=O)=O)cc3)nc12 (single isomer, unassigned) [Example 88, 6-(1-(8-(cyclopropylmethyl)-8-azabicyclo[3.2.1]octan-3-yl)piperidin-4-yl)-8-methyl-2-(4-(methylsulfonyl)phenyl) imidazo[1,2-a]pyridine] | 120
Cc1cc(C2CCN(C3CC4CCC(C3)N4CC3CCC3)CC2)cn2cc(-c3ccc(S(C)(=O)=O)cc3)nc12 (single isomer, unassigned) [Example 90, 6-(1-(8-(cyclobutylmethyl)-8-azabicyclo[3.2.1]octan-3-yl)piperidin-4-yl)-8-methyl-2-(4-(methylsulfonyl)phenyl)imidazo[1,2-a]pyridine] | 104
Cc1cc(C2CCN(C3CCN(C4CCC4)CC3)CC2)cn2cc(-c3ccc(S(C)(=O)=O)cc3)nc12 [Example 91, 6-(1′-cyclobutyl-[1,4′-bipiperidin]-4-yl)-8-methyl-2-(4-(methylsulfonyl)phenyl) imidazo[1,2-a]pyridine] | 19
Cc1cc(C2CCN(C3CCN(CC4CCC4)CC3)CC2)cn2cc(-c3ccc(S(C)(=O)=O)cc3)nc12 [Example 93, 6-(1′-(cyclobutylmethyl)-[1,4′-bipiperidin]-4-yl)-8-methyl-2-(4-(methylsulfonyl)phenyl)imidazo[1,2-a]pyridine] | 83
COCCN1CCN(c2ccc(-c3cc(C)c4nc(-c5ccc(S(C)(=O)=O)cc5)cn4c3)cc2)CC1 [Example 105, 6-(4-(4-(2-methoxyethyl)piperazin-1-yl)phenyl)-8-methyl-2-(4-(methylsulfonyl)phenyl) imidazo[1,2-a]pyridine] | 1000
CS(=O)(=O)c1ccc(-c2cn3cc(C4CCN(C5CCN(C6CC6)CC5)CC4)c(F)cc3n2)cc1 [Example 124, 6-(1′-cyclopropyl-[1,4′-bipiperidin]-4-yl)-7-fluoro-2-(4-(methylsulfonyl)phenyl) imidazo[1,2-a]pyridine] | 158
COc1ccc(-c2nc3ccc(C4CC5CCC(C4)N5C4CCN(C5CC5)CC4)cn3n2)cc1OC (centres unmarked) [Example 146, 6-(8-(1-cyclopropylpiperidin-4-yl)-8-azabicyclo[3.2.1]octan-3-yl)-2-(3,4-dimethoxyphenyl)-[1,2,4]triazolo[1,5-a]pyridine] | 769
Cc1cc(-c2ccc(N3CCN(C(C)C)CC3)cc2)cn2nc(-c3ccc(S(C)(=O)=O)cc3)nc12 [Example 147, 6-(4-(4-isopropylpiperazin-1-yl)phenyl)-8-methyl-2-(4-(methylsulfonyl)phenyl)-[1,2,4]triazolo[1,5-a]pyridine] | 909
COc1ccc(-c2nc3ccc(C4CC5CCC(C4)N5C4CCN(C(C)C)CC4)cn3n2)cc1OC (centres unmarked) [Example 149, 2-(3,4-dimethoxyphenyl)-6-(8-(1-isopropylpiperidin-4-yl)-8-azabicyclo[3.2.1]octan-3-yl)-[1,2,4]triazolo[1,5-a]pyridine] | 217

Next, values leading:

IC50 [nM] | SMILES
98 | Cc1cc(C2CCN(C3CC4CCC(C3)N4C(C)C)CC2)cn2cc(-c3ccc(S(C)(=O)=O)cc3)nc12 (single isomer, unassigned) [Example 62, 6-(1-(8-isopropyl-8-azabicyclo[3.2.1]octan-3-yl)piperidin-4-yl)-8-methyl-2-(4-(methylsulfonyl)phenyl)imidazo[1,2-a]pyridine]
9.1 | CC(C)CN1C2CCC1CC(N1CCC([C@@H]3CCc4nc(-c5ccc(S(C)(=O)=O)cc5)cn4C3)CC1)C2 (single isomer, unassigned) [Example 81]
27 | Cc1cc(C2CCN(C3CC4CCC(C3)N4CC(C)C)CC2)cn2cc(-c3ccc(S(C)(=O)=O)cc3)nc12 (single isomer, unassigned) [Example 85, 6-(1-(8-isobutyl-8-azabicyclo[3.2.1]octan-3-yl)piperidin-4-yl)-8-methyl-2-(4-(methylsulfonyl)phenyl)imidazo[1,2-a]pyridine]
102 | Cc1cc(C2CCN(C3CC4CCC(C3)N4CC(C)C)CC2)cn2cc(-c3ccc(S(C)(=O)=O)cc3)nc12 (single isomer, unassigned) [Example 86, 6-(1-(8-isobutyl-8-azabicyclo[3.2.1]octan-3-yl)piperidin-4-yl)-8-methyl-2-(4-(methylsulfonyl)phenyl)imidazo[1,2-a]pyridine]
7330 | COc1ccc(-c2nc3n(n2)CC(C2CCC(N4CCN(C(C)C)CC4)CC2)CC3C)cc1OC (centres unmarked) [Example 143, 2-(3,4-dimethoxyphenyl)-6-(4-(4-isopropylpiperazin-1-yl)cyclohexyl)-8-methyl-5,6,7,8-tetrahydro-[1,2,4]triazolo[1,5-a]pyridine]
1460 | COc1ccc(-c2nc3n(n2)CC(c2ccc(N4CCN(C(C)C)CC4)cc2)CC3C)cc1OC (centres unmarked) [Example 144, 2-(3,4-dimethoxyphenyl)-6-(4-(4-isopropylpiperazin-1-yl)phenyl)-8-methyl-5,6,7,8-tetrahydro-[1,2,4]triazolo[1,5-a]pyridine]
342 | COc1ccc(-c2nc3n(n2)CC(C2CC4CCC(C2)N4C2CCN(C4CC4)CC2)CC3)cc1OC (centres unmarked) [Example 145, 6-(8-(1-cyclopropylpiperidin-4-yl)-8-azabicyclo[3.2.1]octan-3-yl)-2-(3,4-dimethoxyphenyl)-5,6,7,8-tetrahydro-[1,2,4]triazolo[1,5-a]pyridine]
303 | COc1ccc(-c2nc3n(n2)CC(C2CC4CCC(C2)N4C2CCN(C(C)C)CC2)CC3)cc1OC (centres unmarked) [Example 148, 2-(3,4-dimethoxyphenyl)-6-(8-(1-isopropylpiperidin-4-yl)-8-azabicyclo[3.2.1]octan-3-yl)-5,6,7,8-tetrahydro-[1,2,4]triazolo[1,5-a]pyridine]
20900 | CC1CC(c2ccc(N3CCN(C(C)C)CC3)cc2)Cn2nc(-c3ccc(S(C)(=O)=O)cc3)nc21 (centres unmarked) [Example 150, 6-(4-(4-isopropylpiperazin-1-yl)phenyl)-8-methyl-2-(4-(methylsulfonyl)phenyl)-5,6,7,8-tetrahydro-[1,2,4]triazolo[1,5-a]pyridine]
1370 | COc1ccc(-c2nc3c(C)cc(-c4ccc(N5CC6CCC(C5)N6C(C)C)cc4)cn3n2)cc1OC [Example 151, 2-(3,4-dimethoxyphenyl)-6-(4-(8-isopropyl-3,8-diazabicyclo[3.2.1]octan-3-yl)phenyl)-8-methyl-[1,2,4]triazolo[1,5-a]pyridine]
